# Assay results: ChEMBL document CHEMBL1124430, “Dermorphin analogues carrying an increased positive net charge in their "message" domain display extremely high mu opioid receptor selectivity” (J Med Chem, 1989)
# Square brackets hold non-standard residues; d marks the D form. Peptide text beside a SMILES is read from it. dNle = CCCC[C@@H](N)C(=O)O; dNva = CCC[C@@H](N)C(=O)O; Orn = NCCC[C@H](N)C(=O)O
# Tests used:
# [1] = biological target: T1, Delta-type opioid receptor (Rattus norvegicus, UniProt P33533); test: Binding affinity against delta opioid receptor by displacement of radioligand [3H]DSLET in rat brain membrane; format: cell membranes
# Cavia porcellus [2] = organism: Cavia porcellus; test: Concentration of compound to inhibit 50% (IC50) electrically evoked contractions was tested in Guinea pig ileum(GPI) assay.; format: functional
# Mu-type opioid receptor [3] = biological target: T2, Mu-type opioid receptor (Rattus norvegicus, UniProt P33535); test: Binding affinity against mu opioid receptor by displacement of radioligand [3H]DAGO in rat brain membrane; format: cell membranes
# Mus musculus [4] = organism: Mus musculus; test: Concentration of compound to inhibit 50% (IC50) electrically evoked contractions was tested in Mouse vas deferens (MVD) assay.; format: functional
# [5] = biological target: T1, Delta-type opioid receptor; test: Binding affinity against opioid receptor delta by displacement of radioligand [3H]DSLET in rat brain membrane; format: cell membranes
# Mu-type opioid receptor [6] = biological target: T2, Mu-type opioid receptor; test: Binding affinity against opioid receptor mu by displacement of radioligand [3H]DAGO in rat brain membrane; format: cell membranes
# Mus musculus [7] = organism: Mus musculus; test: Ke value for naloxone as antagonist (compound) was measured by using Mouse vas deferens (MVD) assay.; format: functional
# Mus musculus [8] = organism: Mus musculus; test: The relative potency of compound was measured by comparing the potency of compound to the [Leu]enkephalin in Mouse vas deferens (MVD) assay.; format: functional
# Cavia porcellus [9] = organism: Cavia porcellus; test: The relative potency of compound was measured by comparing the potency of compound to the [Leu]enkephalin in Guinea pig ileum(GPI) assay.; format: functional
# [10] = Ratio of IC50 in Mouse vas deferens and Guinea pig ileum assay; format: functional
# Cavia porcellus [11] = organism: Cavia porcellus; test: Ke value for naloxon as antagonist (compound) was measured by using Guinea pig ileum assay.; format: functional
# Cavia porcellus [12] = organism: Cavia porcellus; test: The relative potency of compound was measured by comparing with [Leu]enkephalin in Guinea pig ileum(GPI) assay.; format: functional
# Mus musculus [13] = organism: Mus musculus; test: The relative potency of compound was measured by comparing with [Leu]enkephalin in Mouse vas deferens (MVD) assay.; format: functional
# [14] = biological target: Mu-type opioid receptor (Rattus norvegicus) (UniProt P33535); test: Ratio of binding affinity of opioid receptor mu and opioid receptor delta
# [15] = biological target: Mu-type opioid receptor (Rattus norvegicus) (UniProt P33535); test: The relative potency of compound was measured against Opioid receptor mu to that of [Leu]enkephalin in [3H]DAGO binding assay.
# [16] = biological target: Delta-type opioid receptor (Rattus norvegicus) (UniProt P33533); test: The relative potency of compound was measured against opioid receptor delta to that of [Leu]enkephalin in [3H]DSLET binding assay.
# [17] = biological target: Mu-type opioid receptor (Rattus norvegicus) (UniProt P33535); test: The relative potency of compound was measured against Opioid receptor mu 1 to that of [Leu]enkephalin in [3H]DAGO binding assay.
# [18] = biological target: T1, Delta-type opioid receptor; test: Binding affinity against Opioid receptor delta 1 by displacement of radioligand [3H]DSLET in rat brain membrane; format: cell membranes
# Mu-type opioid receptor [19] = biological target: T2, Mu-type opioid receptor; test: Binding affinity against Opioid receptor mu 1 by displacement of radioligand [3H]DAGO in rat brain membrane; format: cell membranes
# [20] = biological target: Delta-type opioid receptor (Rattus norvegicus) (UniProt P33533); test: The relative potency of compound was measured against dOpioid receptor delta 1 to that of [Leu]enkephalin in [3H]DSLET binding assay.
# [21] = biological target: Delta-type opioid receptor (Rattus norvegicus) (UniProt P33533); test: The relative potency of compound was measured against Opioid receptor delta 1 to that of [Leu]enkephalin in [3H]DSLET binding assay.
# Mu-type opioid receptor [22] = biological target: T2, Mu-type opioid receptor; test: Binding affinity against Opioid receptor mu 1 by displacement of radioligand [3H]-DAGO in rat brain membrane; format: cell membranes
# T1 sequence (P33533 whole entry): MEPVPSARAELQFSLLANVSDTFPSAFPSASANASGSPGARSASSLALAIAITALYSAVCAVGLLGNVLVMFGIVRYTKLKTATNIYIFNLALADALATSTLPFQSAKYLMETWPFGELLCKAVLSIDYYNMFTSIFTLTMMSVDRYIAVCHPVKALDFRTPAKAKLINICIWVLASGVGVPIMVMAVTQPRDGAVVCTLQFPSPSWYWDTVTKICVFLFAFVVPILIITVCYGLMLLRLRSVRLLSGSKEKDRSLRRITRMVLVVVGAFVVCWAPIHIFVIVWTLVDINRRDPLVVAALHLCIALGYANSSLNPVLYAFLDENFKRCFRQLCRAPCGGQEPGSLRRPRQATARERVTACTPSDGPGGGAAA
# Chain of Delta-type opioid receptor (Rattus norvegicus) (P33533 whole entry): as above
# Chain of Mu-type opioid receptor (Rattus norvegicus) (P33535 whole entry): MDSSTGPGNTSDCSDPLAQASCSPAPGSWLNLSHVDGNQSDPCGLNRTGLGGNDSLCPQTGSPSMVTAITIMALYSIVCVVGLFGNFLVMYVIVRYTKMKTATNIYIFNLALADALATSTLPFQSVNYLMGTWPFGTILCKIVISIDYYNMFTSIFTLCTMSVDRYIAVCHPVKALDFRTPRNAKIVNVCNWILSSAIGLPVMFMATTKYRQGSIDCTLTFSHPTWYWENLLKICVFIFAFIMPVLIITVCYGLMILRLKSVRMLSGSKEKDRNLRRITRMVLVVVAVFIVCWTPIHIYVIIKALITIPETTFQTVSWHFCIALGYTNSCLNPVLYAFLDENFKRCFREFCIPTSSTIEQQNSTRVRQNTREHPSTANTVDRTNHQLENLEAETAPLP
# T2 sequence (P33535 whole entry): as above
SMILES,IC50 (Cavia porcellus [2]),IC50 (Mus musculus [4]),Ke (Mus musculus [7]),Relative potency (Mus musculus [8]),Relative potency (Cavia porcellus [9]),Ratio [10],Ke (Cavia porcellus [11]),further results
NC(=O)[C@H](CCCN=C(N)N)NC(=O)[C@H](CCCN=C(N)N)NC(=O)[C@@H]1CC(=O)NCCC[C@@H](NC(=O)[C@@H](N)Cc2ccc(O)cc2)C(=O)N[C@@H](Cc2ccccc2)C(=O)N1 [listing 1 of 2 here],40.9 nM,745 nM,,,,,,Ki [1]: 1880 nM; Ki (Mu-type opioid receptor [3]): 23.6 nM
NC(=O)[C@@H]1CC(=O)NCCC[C@@H](NC(=O)[C@@H](N)c2ccc(O)cc2)C(=O)N[C@@H](Cc2ccccc2)C(=O)N1 [listing 1 of 2 here],36.2 nM,3880 nM,,,,,,Ki [5]: 2220 nM; Ki (Mu-type opioid receptor [6]): 10.4 nM
NC(=O)[C@@H]1CC(=O)NCCC[C@@H](NC(=O)[C@@H](N)c2ccc(O)cc2)C(=O)N[C@@H](Cc2ccccc2)C(=O)N1 [listing 2 of 2 here],,,2.11 nM,0.00294,6.8,107,1.57 nM,
CCC[C@@H](NC(=O)[C@@H](N)Cc1ccc(O)cc1)C(=O)N[C@@H](Cc1ccccc1)C(=O)N[C@@H](CCCN)C(N)=O (H-Y[dNva]F[Orn]-NH2),104 nM,271 nM,1.47 nM,,,2.61,1.55 nM,Relative potency (Cavia porcellus [12]): 2.36; Relative potency (Mus musculus [13]): 0.042
NCCC[C@H](NC(=O)[C@H](Cc1ccccc1)NC(=O)[C@@H](CCCN=C(N)N)NC(=O)[C@@H](N)Cc1ccc(O)cc1)C(N)=O,346 nM,1090 nM,1.13 nM,0.0105,0.712,3.15,1.24 nM,Ratio [14]: 7740; Relative potency [15]: 7.83; Relative potency [16]: 0.000272
N=C(N)NCCC[C@@H](NC(=O)C(N)Cc1ccc(O)cc1)C(=O)NC(Cc1ccccc1)C(=O)NCCC(N)C(=O)O (stereo not given in full),,,,,,,,Ki [5]: 12600 nM; Ki (Mu-type opioid receptor [6]): 5.78 nM
CCCC[C@H](NC(=O)[C@H](Cc1ccccc1)NC(=O)[C@@H](CCC)NC(=O)[C@@H](N)Cc1ccc(O)cc1)C(N)=O,30.6 nM,153 nM,1.27 nM,,,5,1.72 nM,Relative potency [17]: 2.67; Relative potency (Cavia porcellus [12]): 8.04; Ki [18]: 181 nM; Relative potency (Mus musculus [13]): 0.0745; Ki (Mu-type opioid receptor [19]): 3.53 nM; Relative potency [20]: 0.014
NC(=O)[C@H]1CC(=O)NCCC[C@H](NC(=O)[C@@H](N)c2ccc(O)cc2)C(=O)N[C@@H](Cc2ccccc2)C(=O)N1,,,,,,,,Ratio [14]: 213; Relative potency [15]: 0.907; Relative potency [16]: 0.00114
CCCC[C@@H](NC(=O)[C@@H](N)Cc1ccc(O)cc1)C(=O)N[C@@H](Cc1ccccc1)C(=O)N[C@@H](CCCN)C(N)=O (H-Y[dNle]F[Orn]-NH2),168 nM,2290 nM,1.5 nM,,,13.6,1.01 nM,Relative potency (Cavia porcellus [12]): 1.46; Relative potency (Mus musculus [13]): 0.00498
C[C@@H](NC(=O)[C@@H](N)Cc1ccc(O)cc1)C(=O)NCC(=O)N(C)[C@@H](Cc1ccccc1)C(=O)NCCO [DAMGO],28.3 nM,950 nM,,,,,,Ki [18]: 1280 nM
C[C@@H](NC(=O)[C@@H](N)Cc1ccc(O)cc1)C(=O)N[C@@H](Cc1ccccc1)C(=O)N[C@@H](Cc1ccccc1)C(N)=O (H-Y[dA]FF-NH2),3.23 nM,797 nM,1.31 nM,,,247,0.789 nM,Relative potency [17]: 6.15; Relative potency (Cavia porcellus [12]): 76.2; Relative potency (Mus musculus [13]): 0.0143; Relative potency [21]: 0.00405
NC(N)=NCCC[C@@H](NC(=O)C(N)Cc1ccc(O)cc1)C(=O)NC(Cc1ccccc1)C(=O)NCCC(N)C(=O)O (stereo not given in full),257 nM,659 nM,1.01 nM,0.0173,0.956,2.56,1.32 nM,Ratio [14]: 2180; Relative potency [15]: 1.63; Relative potency [16]: 0.000202
NCCCC[C@H](NC(=O)[C@H](Cc1ccccc1)NC(=O)[C@@H](CCCN=C(N)N)NC(=O)[C@@H](N)Cc1ccc(O)cc1)C(N)=O,254 nM,781 nM,1.64 nM,,,,1.17 nM,
NC(=O)[C@H](CCCN=C(N)N)NC(=O)[C@H](CCCN=C(N)N)NC(=O)[C@@H]1CC(=O)NCCC[C@@H](NC(=O)[C@@H](N)Cc2ccc(O)cc2)C(=O)N[C@@H](Cc2ccccc2)C(=O)N1 [listing 2 of 2 here],,,2.02 nM,0.0153,6.01,18.2,2.03 nM,
C[C@@H](NC(=O)[C@@H](N)Cc1ccc(O)cc1)C(=O)N[C@@H](Cc1ccccc1)C(=O)N[C@@H](Cc1ccccc1)C(=O)N[C@@H](CCCN=C(N)N)C(=O)N[C@@H](CCCN=C(N)N)C(N)=O,21.6 nM,1300 nM,1.27 nM,0.00875,11.4,60.2,0.57 nM,Ki (Mu-type opioid receptor [22]): 2.57 nM; Relative potency [17]: 3.67; Ki [18]: 167 nM; Relative potency [21]: 0.0152
